Measured values reported in patent US20240350493A1 (Kadmon Corporation, LLC, priority 2022, published 2024).
Values after ≈ are worked out from the molar mass of the structure shown. “Also recorded” adds a separate entry of the source.

Assays:
UGT1A1 = UGT1A1 (Homo sapiens, UniProt P22309); assay: enzyme inhibition, in vitro; type: in vitro ADME
pregnant rabbits [1] = assay: embryo-fetal developmental study in rabbits; conditions: rabbit
pregnant rats = assay: embryo-fetal development studies in rats; type: in vivo, rat
Description: In the pilot study, maternal toxicity and embryo-fetal developmental effects were observed. Maternal toxicity (reduced body weight gain) occurred at 150 and 300 mg/kg/day doses. Increased post-implantation loss occurred at 50 and 300 mg/kg/day.

pH-dependent solubility = type: physicochemical
[2] = pharmacokinetics in healthy subjects (label); type: in vivo, human
CYP1A2 = CYP1A2 (Homo sapiens, UniProt P05177); assay: incubations with recombinant enzymes; type: in vitro ADME
CYP2C19 [3] = molecular target: T1, CYP2C19 (Homo sapiens, UniProt P33261); assay: enzyme inhibition, in vitro; type: in vitro ADME
T1 sequence (P33261 whole entry): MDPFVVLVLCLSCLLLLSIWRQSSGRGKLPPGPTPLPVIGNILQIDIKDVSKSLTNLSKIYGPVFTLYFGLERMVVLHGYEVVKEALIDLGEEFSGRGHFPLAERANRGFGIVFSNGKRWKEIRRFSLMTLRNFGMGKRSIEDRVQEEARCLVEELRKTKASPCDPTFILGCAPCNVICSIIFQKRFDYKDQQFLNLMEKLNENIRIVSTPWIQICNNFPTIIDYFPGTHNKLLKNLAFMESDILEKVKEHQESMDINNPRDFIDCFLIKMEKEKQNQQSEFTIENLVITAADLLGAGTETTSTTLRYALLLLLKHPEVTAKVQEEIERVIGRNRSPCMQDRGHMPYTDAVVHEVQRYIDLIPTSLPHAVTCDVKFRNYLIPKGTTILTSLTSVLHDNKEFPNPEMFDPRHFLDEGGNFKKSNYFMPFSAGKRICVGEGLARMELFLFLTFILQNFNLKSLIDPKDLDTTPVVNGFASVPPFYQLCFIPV

rat bone marrow = assay: in vivo rat bone marrow micronucleus assay
CYP2C8 = CYP2C8 (Homo sapiens, UniProt P10632); assay: incubations with recombinant enzymes; type: in vitro ADME
Sequence of CYP2C8 (P10632 whole entry): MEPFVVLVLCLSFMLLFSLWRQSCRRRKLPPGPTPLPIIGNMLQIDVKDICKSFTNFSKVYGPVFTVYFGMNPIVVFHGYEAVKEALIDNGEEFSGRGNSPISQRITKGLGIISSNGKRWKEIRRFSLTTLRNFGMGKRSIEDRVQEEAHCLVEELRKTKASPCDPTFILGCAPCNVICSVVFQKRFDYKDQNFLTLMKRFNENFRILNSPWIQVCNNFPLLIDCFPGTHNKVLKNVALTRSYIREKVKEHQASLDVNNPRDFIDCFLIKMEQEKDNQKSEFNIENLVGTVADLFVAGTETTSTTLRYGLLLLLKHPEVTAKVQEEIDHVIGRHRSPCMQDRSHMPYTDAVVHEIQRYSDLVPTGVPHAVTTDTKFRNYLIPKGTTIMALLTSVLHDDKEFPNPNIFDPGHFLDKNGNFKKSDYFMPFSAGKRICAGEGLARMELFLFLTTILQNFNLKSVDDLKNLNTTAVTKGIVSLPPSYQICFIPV

rats = assay: combined male and female rat fertility study; type: in vivo
Source text: In a combined male and female rat fertility study, belumosudil-treated male animals were mated with untreated females, or untreated males were mated with belumosudil-treated females.

human serum albumin = human serum albumin (Homo sapiens, UniProt P02768); assay: protein binding in vitro; type: in vitro ADME
Sequence of human serum albumin (P02768 25-609): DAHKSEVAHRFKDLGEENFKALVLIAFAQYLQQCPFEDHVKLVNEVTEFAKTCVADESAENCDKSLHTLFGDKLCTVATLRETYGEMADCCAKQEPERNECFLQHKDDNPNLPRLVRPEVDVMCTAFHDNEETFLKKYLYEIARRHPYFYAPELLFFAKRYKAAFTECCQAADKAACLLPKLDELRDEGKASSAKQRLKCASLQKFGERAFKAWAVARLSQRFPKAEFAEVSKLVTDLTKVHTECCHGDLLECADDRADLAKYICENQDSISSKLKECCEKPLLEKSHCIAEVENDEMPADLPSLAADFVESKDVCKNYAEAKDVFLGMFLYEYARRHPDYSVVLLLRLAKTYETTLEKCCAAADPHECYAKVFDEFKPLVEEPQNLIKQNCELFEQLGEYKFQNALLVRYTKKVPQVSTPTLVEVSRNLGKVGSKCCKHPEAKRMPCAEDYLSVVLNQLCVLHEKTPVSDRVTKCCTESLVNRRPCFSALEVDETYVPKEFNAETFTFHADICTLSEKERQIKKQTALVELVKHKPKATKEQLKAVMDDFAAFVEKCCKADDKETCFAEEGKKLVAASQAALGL

pregnant rabbits [4] = conditions: female, rabbit, in vivo, po
[5] = tested on: human peripheral blood lymphocytes (HPBL); assay: in vitro chromosome aberration assay; type: cell-based
CYP3A4 = CYP3A4 (Homo sapiens, UniProt P08684); assay: incubations with recombinant enzymes; type: in vitro ADME
Sequence of CYP3A4 (P08684 whole entry): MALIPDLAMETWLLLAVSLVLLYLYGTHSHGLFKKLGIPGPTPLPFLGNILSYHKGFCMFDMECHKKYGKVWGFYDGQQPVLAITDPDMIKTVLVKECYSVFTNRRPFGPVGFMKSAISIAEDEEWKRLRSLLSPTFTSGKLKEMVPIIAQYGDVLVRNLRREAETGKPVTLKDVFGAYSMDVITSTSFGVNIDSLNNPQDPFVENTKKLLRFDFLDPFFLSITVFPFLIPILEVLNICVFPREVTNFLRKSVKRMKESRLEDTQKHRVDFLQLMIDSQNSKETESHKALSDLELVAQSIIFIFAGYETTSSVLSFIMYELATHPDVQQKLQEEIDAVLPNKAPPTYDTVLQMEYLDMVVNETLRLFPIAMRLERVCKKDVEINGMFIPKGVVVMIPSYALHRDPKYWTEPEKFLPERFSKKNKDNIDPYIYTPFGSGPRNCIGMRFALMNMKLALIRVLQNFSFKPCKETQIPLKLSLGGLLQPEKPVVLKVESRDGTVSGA

OATPIB1 = OATPIB1 (Homo sapiens, UniProt Q9Y6L6); assay: transporter inhibition, in vitro; type: in vitro ADME; conditions: at clinically relevant concentrations
Sequence of OATPIB1 (Q9Y6L6 whole entry): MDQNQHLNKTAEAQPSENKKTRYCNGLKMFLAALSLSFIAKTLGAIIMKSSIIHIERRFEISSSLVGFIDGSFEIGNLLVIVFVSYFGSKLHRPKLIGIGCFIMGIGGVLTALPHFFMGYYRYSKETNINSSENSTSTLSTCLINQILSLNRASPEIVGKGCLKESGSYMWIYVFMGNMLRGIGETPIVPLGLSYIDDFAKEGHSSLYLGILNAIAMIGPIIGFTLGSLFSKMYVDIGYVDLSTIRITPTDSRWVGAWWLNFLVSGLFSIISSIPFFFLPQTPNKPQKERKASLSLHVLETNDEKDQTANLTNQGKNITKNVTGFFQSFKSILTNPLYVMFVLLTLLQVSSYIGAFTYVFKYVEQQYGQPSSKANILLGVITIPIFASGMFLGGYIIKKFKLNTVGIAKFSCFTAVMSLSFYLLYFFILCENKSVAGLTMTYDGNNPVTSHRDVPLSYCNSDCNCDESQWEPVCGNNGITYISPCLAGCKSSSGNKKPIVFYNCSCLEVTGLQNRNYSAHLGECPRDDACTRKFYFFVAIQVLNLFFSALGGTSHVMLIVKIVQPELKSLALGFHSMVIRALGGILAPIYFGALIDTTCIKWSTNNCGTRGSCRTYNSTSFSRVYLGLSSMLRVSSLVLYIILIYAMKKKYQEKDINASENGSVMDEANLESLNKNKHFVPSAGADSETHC

healthy male subjects = assay: phase I drug-drug interaction study, safety and tolerability (Example 1); type: in vivo, human
Source text: This was a single center, non-randomized, DDI study in 35 (Part 1) and 38 (Part 2) healthy males. The key inclusion criterion was males aged 18 to 55 years (inclusive). […] In Part 2, co-administration with omeprazole was studied. The study design is illustrated in FIG. 1.
At least a 2-to 8-day washout occurred between each period to account for a minimum of 5 half-lives of the active moieties dosed in the preceding period.
Safety and tolerability of belumosudil was the secondary endpoint of the study and was evaluated by AEs, vital signs, physical examinations, electrocardiograms (ECGs), and clinical laboratory tests. All subjects who received at least one dose of belumosudil or perpetrator compound were included in the safety population.

[6] = previously conducted solubility studies; type: physicochemical
Description: Rabeprazole, a strong PPI, suppresses the secretion of gastric acid by noncompetitive blockade of H+/K+-adenosine triphosphatase at the secretory surface of gastric parietal cells, thereby raising the intra-gastric pH above 3.0. The recommended starting dose of sodium rabeprazole for subjects with GI ulcers and GERD is 20 mg per day and for subjects with hypersecretory syndromes is 60 mg per day (Accord-UK Ltd. Summary of Product Characteristics: Rabeprazole 20 mg Gastro-resistant Tablets, available at www.medicines.org.uk/emc/medicine/27143/SPC/Rabeprazole+20 mg+Gastro-resistant+Tablets/. Updated 16 Apr. 2020. Accessed 12 Aug. 2021).

P-gp = P-gp (Homo sapiens, UniProt P08183); assay: transporter inhibition, in vitro; type: in vitro ADME; conditions: at clinically relevant concentrations
Sequence of P-gp (P08183 whole entry): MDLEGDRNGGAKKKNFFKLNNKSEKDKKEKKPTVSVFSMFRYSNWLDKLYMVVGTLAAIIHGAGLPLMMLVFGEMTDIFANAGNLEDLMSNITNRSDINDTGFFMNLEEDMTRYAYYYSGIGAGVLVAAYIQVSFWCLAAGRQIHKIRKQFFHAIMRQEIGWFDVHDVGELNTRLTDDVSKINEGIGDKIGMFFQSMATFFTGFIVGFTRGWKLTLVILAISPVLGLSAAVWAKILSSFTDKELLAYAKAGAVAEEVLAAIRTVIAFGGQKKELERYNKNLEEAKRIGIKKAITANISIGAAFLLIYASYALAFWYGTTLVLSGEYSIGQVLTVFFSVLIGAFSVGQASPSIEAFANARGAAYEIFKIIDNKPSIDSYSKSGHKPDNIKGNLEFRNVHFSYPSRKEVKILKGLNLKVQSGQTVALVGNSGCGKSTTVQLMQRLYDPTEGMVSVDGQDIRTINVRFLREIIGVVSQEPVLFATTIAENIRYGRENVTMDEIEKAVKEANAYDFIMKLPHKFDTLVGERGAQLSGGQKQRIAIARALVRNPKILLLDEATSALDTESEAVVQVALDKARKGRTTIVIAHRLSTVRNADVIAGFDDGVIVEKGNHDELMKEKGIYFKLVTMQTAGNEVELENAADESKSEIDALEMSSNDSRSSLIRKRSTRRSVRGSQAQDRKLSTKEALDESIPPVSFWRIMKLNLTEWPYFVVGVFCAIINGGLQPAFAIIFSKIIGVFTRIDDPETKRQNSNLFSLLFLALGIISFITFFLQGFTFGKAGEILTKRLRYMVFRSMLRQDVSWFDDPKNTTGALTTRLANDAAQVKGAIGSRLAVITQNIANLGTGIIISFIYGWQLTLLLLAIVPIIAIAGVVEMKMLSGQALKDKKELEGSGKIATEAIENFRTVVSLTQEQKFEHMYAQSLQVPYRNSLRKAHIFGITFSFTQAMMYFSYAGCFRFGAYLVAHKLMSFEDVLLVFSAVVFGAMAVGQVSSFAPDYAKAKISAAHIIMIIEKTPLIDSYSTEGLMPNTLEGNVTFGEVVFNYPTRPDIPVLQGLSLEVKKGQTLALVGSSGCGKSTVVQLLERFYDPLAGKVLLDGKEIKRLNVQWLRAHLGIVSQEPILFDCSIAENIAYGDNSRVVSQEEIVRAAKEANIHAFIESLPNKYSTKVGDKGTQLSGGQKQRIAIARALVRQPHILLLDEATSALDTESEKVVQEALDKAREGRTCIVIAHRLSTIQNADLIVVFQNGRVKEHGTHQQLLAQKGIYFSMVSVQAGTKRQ

CYP2C19 [7] = molecular target: T1, CYP2C19; assay: incubations with recombinant enzymes; type: in vitro ADME
[8] = single oral dose of radiolabeled belumosudil

Sequence of UGT1A1 (P22309 26-533): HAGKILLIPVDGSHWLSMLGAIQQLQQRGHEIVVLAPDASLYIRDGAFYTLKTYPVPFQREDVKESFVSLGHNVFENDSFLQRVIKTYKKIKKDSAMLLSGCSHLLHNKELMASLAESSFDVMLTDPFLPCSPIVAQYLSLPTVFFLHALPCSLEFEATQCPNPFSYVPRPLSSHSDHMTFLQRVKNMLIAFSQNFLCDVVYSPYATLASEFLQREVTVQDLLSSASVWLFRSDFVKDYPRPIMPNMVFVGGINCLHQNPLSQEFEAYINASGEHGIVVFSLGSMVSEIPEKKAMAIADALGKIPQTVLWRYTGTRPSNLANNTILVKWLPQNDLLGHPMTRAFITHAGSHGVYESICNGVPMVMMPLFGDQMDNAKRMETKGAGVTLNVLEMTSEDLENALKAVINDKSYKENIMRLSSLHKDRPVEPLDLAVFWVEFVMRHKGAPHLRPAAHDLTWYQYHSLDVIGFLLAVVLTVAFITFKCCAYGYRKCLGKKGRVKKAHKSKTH

## CC(C)NC(=O)COc1cccc(-c2nc(Nc3ccc4[nH]ncc4c3)c3ccccc3n2)c1 [Belumosudil, 2-{3-[4-(1H-indazol-5-ylamino)-2-quinazolinyl]phenoxy}-N-(propan-2-yl) acetamide]
UGT1A1
  UGT1A1 inhibition: inhibitor
Pregnant rabbits [1]
  maternal exposures (AUC) with adverse developmental outcomes, times human exposure at recommended dose: ≥ 0.07 times
Pregnant rats; pilot study, oral, period of organogenesis
  doses with fetal malformations: ≥ 50 mg/kg/day
Pregnant rats; rat
  maternal exposures (AUC) with adverse developmental outcomes, times human exposure at recommended dose: ≥ 3 times
pH-dependent solubility; pH 1.08, simulated gastric fluid
  solubility: 11 µg/mL (≈ 24.3 µM)
pH-dependent solubility; pH 1.6, simulated gastric fluid
  solubility: 1640 µg/mL (≈ 3630 µM)
pH-dependent solubility; pH 6.5, aqueous buffer
  solubility: 3 µg/mL (≈ 6.63 µM)
pH-dependent solubility; simulated gastric fluid, pH 2.0
  solubility: 1430 µg/mL (≈ 3170 µM)
[2]; single dose
  increase in AUC with high-fat and high-calorie meal vs fasted: 2 times
  increase in Cmax with high-fat and high-calorie meal vs fasted: 2.2 times
[2]; [8]
  radioactivity recovered in feces: 85%
  radioactivity recovered in urine: less than 5%
  recovered in feces as unchanged: 30%
CYP1A2
  share of belumosudil metabolism: < 5%
CYP2C19 [3]
  CYP2C19 inhibition: inhibitor
Rat bone marrow
  genotoxicity: not genotoxic
CYP2C8
  share of belumosudil metabolism: 14.2%
rats; female rats, treated or mated with treated males
  dose with increased pre-or post-implantation loss and decreased number of viable embryos: 275 mg/kg/day
rats; male rats
  dose with abnormal sperm findings and testes/epididymis organ changes: 275 mg/kg/day
rats; treated males or females
  dose with reduced fertility: 275 mg/kg/day
Human serum albumin
  binding to human serum albumin: 99.9%
Pregnant rabbits [4]
  doses with embryo-fetal effects: ≥ 50 mg/kg/day
  doses with maternal toxicity (body weight loss and mortality): ≥ 125 mg/kg/day
[5]
  genotoxicity: not genotoxic
CYP3A4
  share of belumosudil metabolism: 41.9%
OATPIB1
  OATPIB1 inhibition: inhibits
Healthy male subjects; Periods 1, 2, and 4
  treatment-emergent AEs (TEAEs) reported: 33
Healthy male subjects; all mild: abdominal distension, hot flush, fatigue
  AEs considered possibly related to belumosudil: Three
Healthy male subjects; ankle fracture after belumosudil+itraconazole, considered unrelated
  serious AE (SAE): One
Healthy male subjects; belumosudil alone
  subjects reporting gastrointestinal disorders: 3 subjects
Healthy male subjects; belumosudil+itraconazole
  subjects reporting gastrointestinal disorders: 5 subjects
Healthy male subjects; in vivo
  deaths or AEs leading to subject withdrawal: no deaths or AEs leading to subject withdrawal
Healthy male subjects; with and without perpetrator compounds
  safety profile: unremarkable; also recorded: safe, and no notable adverse events were reported
[6]; pH 2.7, aqueous buffer
  solubility: > 100 µg/mL
[6]; pH 6.5, aqueous buffer
  solubility: ~4 µg/mL (≈ 8.84 µM)
[6]; pH 7.4, aqueous buffer
  solubility: ~3 µg/mL (≈ 6.63 µM)
P-gp
  P-gp inhibition: inhibits
CYP2C19 [7]
  share of belumosudil metabolism: < 5%
